Measured values reported in the supplement of paper PMC8497498.
Counter-ions that a name gives are not always drawn.

Columns and labels:
[1] = test system: Plasmodium cynomolgi Berok K4 asexual blood stage; experiment: EC50 asexual blood stage growth
Description: (§1)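 The Reference Compound Library was tested by 10-point 3-fold dose response against P. cynomolgi Berok K4 asexual blood stages (SYBR proliferation assay, mefloquine background control). Culture medium contained 0.5% AlbuMAX or 20% M. fascicularis serum. P. falciparum 3D7 was tested in a 72-h SYBR Green assay with 0.5% AlbuMAX. Values are geometric mean EC50 over independent experiments; 10 uM is the top dose.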

[2] = test system: Plasmodium falciparum 3D7 asexual blood stage; experiment: EC50 asexual blood stage growth; conditions: serum: 0.5% AlbuMAX
Description: as §1

[3] = test system: Plasmodium vivax liver stage (primary human hepatocyte culture)
Description: (§2)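 Dose-response of P. vivax liver stages in primary human hepatocytes, with 8 points (10 uM-[…], v1) or 12 points in duplicate (50 uM-280 pM, v2). Read-out is high-content imaging of schizont net growth area, hypnozoite quantity and hepatic nuclei. EC50 and CC20 (20% nuclei loss) were fitted in CDD Vault from the highest-quality independent experiment; toxic-dose bell-shaped points were masked. '>' marks the highest concentration with less than 50% activity, and ND means a non-sigmoidal curve.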

[4] = test system: Plasmodium vivax liver stage (primary human hepatocyte culture); experiment: maximum inhibition of schizont net growth area; higher = more active
Description: as §2

[5] = test system: primary human hepatocytes; experiment: CC20 hepatic nuclei (20% reduction); higher = less toxic
Description: as §2

[6] = serum: 20% M. fascicularis serum
[7] = P. vivax isolate: Pv923, hepatocyte lot: BGW, assay mode: Radical Cure, 8-day (treatment from day 5 post-infection)
[8] = P. vivax isolate: Pv914, hepatocyte lot: BGW, assay mode: Prophylactic, 6-day
[9] = P. vivax isolate: Pv922, hepatocyte lot: BGW, assay mode: Radical Cure, 8-day (treatment from day 5 post-infection)
[10] = P. vivax isolate: Pv728, hepatocyte lot: BGW, assay mode: Radical Cure, 8-day (treatment from day 5 post-infection)
[11] = P. vivax isolate: Pv357, hepatocyte lot: UBV, assay mode: Radical Cure, 8-day (treatment from day 5 post-infection)
[12] = P. vivax isolate: Pv360, hepatocyte lot: UBV, assay mode: Radical Cure, 8-day (treatment from day 5 post-infection)
[13] = P. vivax isolate: Pv772, hepatocyte lot: BGW, assay mode: Prophylactic, 6-day
[14] = P. vivax isolate: IVS17-02, hepatocyte lot: PDC, assay mode: Radical Cure, 8-day (treatment from day 5 post-infection)
[15] = P. vivax isolate: Pv360, hepatocyte lot: UBV, assay mode: Prophylactic, 6-day
[16] = P. vivax isolate: Pv458, hepatocyte lot: UBV, assay mode: Radical Cure, 8-day (treatment from day 5 post-infection)
[17] = P. vivax isolate: Pv914, hepatocyte lot: BGW, assay mode: Radical Cure, 8-day (treatment from day 5 post-infection)
[18] = P. vivax isolate: Pv836, hepatocyte lot: BGW, assay mode: Radical Cure, 8-day (treatment from day 5 post-infection)

CC(C)(C)NCc1cc(Nc2ccnc3cc(Cl)ccc23)ccc1F
EC50 asexual blood stage growth ([1]; serum: 0.5% AlbuMAX): 77.4 nM
EC50 asexual blood stage growth [1, 6]: 38.8 nM
EC50 asexual blood stage growth [2]: 9.8 nM

CC(C)(C)NCc1cc(C(C)(C)C)cc(-c2ccc(Cl)cc2)c1O
EC50 asexual blood stage growth ([1]; serum: 0.5% AlbuMAX): 2 nM
EC50 asexual blood stage growth [1, 6]: 6.8 nM
EC50 asexual blood stage growth [2]: 14.1 nM

Cc1ncc(-c2ccnc(Nc3ccc(S(C)(=O)=O)cc3)n2)n1C(C)C
EC50 hypnozoite quantity [3, 7]: > 50000 nM
EC50 schizont net growth area [3, 7]: > 50000 nM
maximum inhibition [4, 7]: 69.4%
CC20 hepatic nuclei [5, 7]: 1820 nM

Cc1c(Oc2cnc(C(=O)N3CC(C)(O)C3)cn2)ccc2c1B(O)OC2
EC50 hypnozoite quantity [3, 8]: > 1110 nM
EC50 schizont net growth area [3, 8]: 1630 nM
maximum inhibition [4, 8]: 99.7%
CC20 hepatic nuclei [5, 8]: > 10000 nM

Cc1cc(Nc2ccc(C(F)(F)F)nc2)n2nc(C(C)(F)F)nc2n1
EC50 hypnozoite quantity [3, 8]: > 10000 nM
EC50 schizont net growth area [3, 8]: 325 nM
maximum inhibition [4, 8]: 98.8%
CC20 hepatic nuclei [5, 8]: > 10000 nM

CCc1cc(=O)n(C)c(SC(C)C(=O)Nc2ccc(F)cc2)n1 (stereo not given)
EC50 hypnozoite quantity [3, 7]: > 50000 nM
EC50 schizont net growth area [3, 7]: > 16700 nM
maximum inhibition [4, 7]: 87.6%
CC20 hepatic nuclei [5, 7]: > 50000 nM

CN(C)C(=S)NN=C1C(=O)Nc2ccccc21
EC50 schizont net growth area [3, 7]: > 16700 nM
maximum inhibition [4, 7]: 66.1%
CC20 hepatic nuclei [5, 7]: 40300 nM

COc1cccc(C=Cc2nc(=O)c3ccccc3o2)c1OC
EC50 hypnozoite quantity [3, 8]: > 10000 nM
maximum inhibition [4, 8]: 62.6%
CC20 hepatic nuclei [5, 8]: > 10000 nM

CS(=O)(=O)c1cccc(-c2cnc3[nH]cc(-c4ccc(CCC(=O)O)cc4)c3c2)c1
EC50 hypnozoite quantity [3, 7]: > 50000 nM
EC50 schizont net growth area [3, 7]: 418 nM
maximum inhibition [4, 7]: 99.2%
CC20 hepatic nuclei [5, 7]: > 50000 nM

Cc1sc2ncnc(Sc3nnc(N)s3)c2c1C
EC50 hypnozoite quantity [3, 9]: > 50000 nM
EC50 schizont net growth area [3, 9]: > 5560 nM
maximum inhibition [4, 9]: 86.8%
CC20 hepatic nuclei [5, 9]: > 16700 nM

O=C(Nc1ccc(N2CCNCC2)cc1)c1ccn2ncc(-c3cccc(Cl)c3)c2n1
EC50 hypnozoite quantity [3, 7]: > 50000 nM
EC50 schizont net growth area [3, 7]: > 50000 nM
maximum inhibition [4, 7]: 45.8%
CC20 hepatic nuclei [5, 7]: > 1850 nM

O=C(Nc1cc(C(F)(F)F)cc(C(F)(F)F)c1)Nc1ccc(Cl)c(Cl)c1
EC50 hypnozoite quantity [3, 9]: > 50000 nM
maximum inhibition [4, 9]: 51.2%
CC20 hepatic nuclei [5, 9]: > 5560 nM

CN(Cc1cnc2nc(N)nc(N)c2n1)c1ccc(C(=O)N[C@@H](CCC(=O)O)C(=O)O)cc1 (racemic) [Methotrexate (+/-)]
EC50 hypnozoite quantity [3, 8]: > 10000 nM
EC50 schizont net growth area [3, 8]: 42.8 nM
maximum inhibition [4, 8]: 99.1%
CC20 hepatic nuclei [5, 8]: > 10000 nM

Cc1nn(C)c(NC(=O)Cn2c(C(C)C)nc3ccccc32)c1-c1ccc(Cl)cc1F [21A092]
EC50 asexual blood stage growth ([1]; serum: 0.5% AlbuMAX): 7 nM
EC50 asexual blood stage growth [1, 6]: 79.4 nM
EC50 asexual blood stage growth [2]: 14.8 nM

Cc1c(Oc2cnc(C(=O)N3CC(C)(O)C3)cn2)ccc2c1B(O)OC2 [AN762]
EC50 asexual blood stage growth ([1]; serum: 0.5% AlbuMAX): 1750 nM
EC50 asexual blood stage growth [1, 6]: 2200 nM
EC50 asexual blood stage growth [2]: 101 nM

Cc1c(CCO)sc[n+]1CCCCCCCCCCCC[n+]1csc(CCO)c1C [Albitiazolium]
EC50 asexual blood stage growth ([1]; serum: 0.5% AlbuMAX): 367 nM
EC50 asexual blood stage growth [1, 6]: 144 nM
EC50 asexual blood stage growth [2]: 14.4 nM

c1cc(C2CCC3(CC2)OOC2(O3)C3CC4CC(C3)CC2C4)ccc1OCCN1CCOCC1 (stereo not given) [Artefenomel, OZ439]
EC50 hypnozoite quantity [3, 10]: > 50000 nM
EC50 schizont net growth area [3, 10]: 6890 nM
maximum inhibition [4, 10]: 80.3%
CC20 hepatic nuclei [5, 10]: > 16700 nM

c1cc(C2CCC3(CC2)OOC2(O3)C3CC4CC(C3)CC2C4)ccc1OCCN1CCOCC1 (stereo not given) [Artefenomel]
EC50 asexual blood stage growth ([1]; serum: 0.5% AlbuMAX): 3.4 nM
EC50 asexual blood stage growth [1, 6]: 2.3 nM
EC50 asexual blood stage growth [2]: 42.4 nM

CC(C)(N)CNC(=O)CC1CCC2(CC1)OOC1(O2)C2CC3CC(C2)CC1C3 (stereo not given) [Arterolane, OZ277]
EC50 hypnozoite quantity [3, 11]: > 10000 nM
EC50 schizont net growth area [3, 11]: > 10000 nM
maximum inhibition [4, 11]: 51.4%
CC20 hepatic nuclei [5, 11]: > 10000 nM

CC[C@H]1OC(=O)[C@H](C)C(=O)[C@H](C)[C@@H](O[C@@H]2O[C@H](C)C[C@H](N(C)C)[C@H]2O)[C@](C)(OCC=Cc2cnc3ccccc3c2)C[C@@H](C)C(=O)[C@H](C)[C@H]2N=C(O)O[C@@]21C [Cethromycin]
EC50 hypnozoite quantity [3, 8]: > 10000 nM
maximum inhibition [4, 8]: 63.3%
CC20 hepatic nuclei [5, 8]: > 10000 nM

CCN(CC)CCCC(C)Nc1ccnc2cc(Cl)ccc12 (stereo not given) [Chloroquine Diphosphate]
EC50 hypnozoite quantity [3, 8]: > 16700 nM
EC50 schizont net growth area [3, 8]: > 5560 nM
maximum inhibition [4, 8]: 99.1%
CC20 hepatic nuclei [5, 8]: > 16700 nM

O=C(O)c1cn(C2CC2)c2cc(N3CCNCC3)c(F)cc2c1=O [Ciprofloxacin]
EC50 hypnozoite quantity [3, 10]: > 10000 nM
EC50 schizont net growth area [3, 10]: > 10000 nM
maximum inhibition [4, 10]: 59.2%
CC20 hepatic nuclei [5, 10]: > 10000 nM

CCC[C@@H]1C[C@@H](C(=O)N[C@@H]([C@H]2O[C@H](SC)[C@H](O)[C@@H](O)[C@H]2O)[C@H](C)Cl)N(C)C1 [Clindamycin hydrochloride]
EC50 hypnozoite quantity [3, 8]: > 50000 nM
EC50 schizont net growth area [3, 8]: 5.97 nM
maximum inhibition [4, 8]: 79.5%
CC20 hepatic nuclei [5, 8]: > 50000 nM

CC1CC(C)C(=O)C(C(O)CC2CC(=O)NC(=O)C2)C1 (stereo not given) [Cycloheximide]
EC50 hypnozoite quantity [3, 12]: > 10000 nM
EC50 schizont net growth area [3, 12]: 85.6 nM
EC50 hypnozoite quantity [3, 8]: > 3330 nM
EC50 schizont net growth area [3, 8]: 1390 nM
maximum inhibition [4, 12]: 96.3%
maximum inhibition [4, 8]: 99.6%
CC20 hepatic nuclei [5, 12]: > 10000 nM
CC20 hepatic nuclei [5, 8]: > 10000 nM

C[C@H]1c2cccc(O)c2C(=O)C2=C(O)[C@]3(O)C(=O)C(C(N)=O)=C(O)[C@@H](N(C)C)C3[C@@H](O)C21 (stereo not given in full) [Doxycycline hydrochloride]
EC50 hypnozoite quantity [3, 8]: > 10000 nM
EC50 schizont net growth area [3, 8]: > 370 nM
maximum inhibition [4, 8]: 68.3%
CC20 hepatic nuclei [5, 8]: > 10000 nM

CCC(C)C1OC2(CCC1C)CC1CC(CC=C(C)C(OC3CC(OC)C(OC4CC(OC)C(O)C(C)O4)C(C)O3)C(C)C=CC=C3COC4C(O)C(C)=CC(C(=O)O1)C34O)O2 (stereo not given) [Ivermectin]
EC50 hypnozoite quantity [3, 13]: > 10000 nM
EC50 schizont net growth area [3, 13]: > 3330 nM
maximum inhibition [4, 13]: 69.8%
CC20 hepatic nuclei [5, 13]: > 10000 nM

CC1(C)c2nc(-c3ccc(F)cc3)c(Nc3ccc(F)cc3)n2CCN1C(=O)CN [KAF156]
EC50 hypnozoite quantity [3, 14]: > 1000 nM
EC50 schizont net growth area [3, 14]: 330 nM
EC50 hypnozoite quantity [3, 15]: 32.9 nM
EC50 schizont net growth area [3, 15]: 14.1 nM
maximum inhibition [4, 14]: 93.2%
maximum inhibition [4, 15]: 103%
CC20 hepatic nuclei [5, 14]: > 1000 nM
CC20 hepatic nuclei [5, 15]: > 10000 nM

CCC(C(=O)C(C)C(O)C(C)CCc1ccc(C)c(O)c1C(=O)[O-])C1OC(CC)(C2CCC(O)(CC)C(C)O2)CC1C.[Na+] (stereo not given) [Lasalocid-A]
EC50 hypnozoite quantity [3, 11]: 1050 nM
EC50 schizont net growth area [3, 11]: 43.1 nM
maximum inhibition [4, 11]: 100%
CC20 hepatic nuclei [5, 11]: > 10000 nM

COC1CC(OC2CC(C3OC(C)(O)C(C)CC3C)OC2C2(C)CCC(C3(C)CCC4(CC(O)C(C)C(C(C)C5OC(O)(CC(=O)O)C(C)C(OC)C5OC)O4)O3)O2)OC(C)C1OC.N (stereo not given) [Maduramicin]
EC50 hypnozoite quantity [3, 16]: 22.5 nM
EC50 schizont net growth area [3, 16]: 0.705 nM
maximum inhibition [4, 16]: 101%
CC20 hepatic nuclei [5, 16]: 2590 nM

CCC(C(=O)O)C1OC(C(C)C(O)C(C)C(=O)C(CC)C2OC3(C=CC(O)C4(CCC(C)(C5CCC(O)(CC)C(C)O5)O4)O3)C(C)CC2C)C(C)CC1C (stereo not given) [Narasin]
EC50 hypnozoite quantity [3, 16]: 64.6 nM
EC50 schizont net growth area [3, 16]: 7.5 nM
maximum inhibition [4, 16]: 101%
CC20 hepatic nuclei [5, 16]: 8800 nM

N=C(N)c1ccc(OCCCCCOc2ccc(C(=N)N)cc2)cc1 [Pentamidine isethionate]
EC50 hypnozoite quantity [3, 8]: 5540 nM
EC50 schizont net growth area [3, 8]: 551 nM
EC50 hypnozoite quantity [3, 17]: > 50000 nM
EC50 schizont net growth area [3, 17]: 8390 nM
maximum inhibition [4, 8]: 99.6%
maximum inhibition [4, 17]: 94.4%
CC20 hepatic nuclei [5, 8]: 5540 nM
CC20 hepatic nuclei [5, 17]: > 5560 nM

CCC(C(=O)O)C1CCC(C)C(C(C)C(O)C(C)C(=O)C(CC)C2OC3(C=CC(O)C4(CCC(C)(C5CCC(O)(CC)C(C)O5)O4)O3)C(C)CC2C)O1 (stereo not given) [Salinomycin]
EC50 hypnozoite quantity [3, 18]: 112 nM
EC50 schizont net growth area [3, 18]: 40.2 nM
maximum inhibition [4, 18]: 102%
CC20 hepatic nuclei [5, 18]: > 10000 nM
